Assay results published in US20250101430A1, “METHODS OF CANCER TREATMENT BY INHIBITION OF VASCULOGENESIS AND GLI1” (priority 2021, published 2025).
Entries after “also recorded” stand apart in the source; their conditions may differ.

Key:
HUVEC cells = conditions: cited from earlier work
Rh18 cells = assay: rt-PCR of GLI1 target gene Bcl-2 in GANT-61 treated Rh18 cells; type: cell-based
Procedure: (§1) High-Capacity RNA-to-cDNA kit (Applied Biosystems) was used to reverse transcribe the isolated RNA. Each reaction tube included up to 2 μg of RNA. The reverse transcription reaction was performed according to manufacturer instructions via the MBS Satellite (0.2 G) Thermal Cycler (ThermoFisher Scientific). The qPCR reaction mix was prepared by adding 12 ng of cDNA from each sample to the PowerUp SYBR Green Master Mix (2×) (Applied Biosystems). qPCR was performed (Standard Cycling Mode, primer Tm<60° C.) via the 7500 Fast Real-Time PCR system [Applied Biosystems]. The 7500 v2.3 software was used for data collection and gene expression comparisons (2^−ΔΔCT method).
(§2) First, to validate the effect of GANT-61 inhibition on GLI1 target genes, rt-PCR on GANT-61 treated Rh18 and Rh41 cells was performed. These cell lines express GLI1.

Rh41 cells = assay: rt-PCR of GLI1 target gene Bcl-2 in GANT-61 treated Rh41 cells; type: cell-based
Procedure: as §1, §2

hESCs = assay: Marker expression in hESCs maintained in mTeSR1 media with GANT-61; type: cell-based, human; conditions: 5 μM and 20 μM GANT-61, 6 or 12 days
Procedure: H1 (WA01), a well characterized human embryonic stem cell line,^33 was purchased from WiCell (Madison, WI, www.wicell.org/home/stem-cells/catalog-of-stem-cell-lines/wa01.cmsx). The cells were maintained on Matrigel-coated culture dishes in mTeSR1 medium (STEMCELL Technologies) or StemMACS iPS-Brew XF (Miltenyi Biotec).
as §1
Next, the effect of GANT-61 on GLI1 and SHH pathway members PTCH1 and SMO expression and on pluripotency marker expression in hESCs was evaluated.

H1 hESCs = assay: Spontaneous differentiation of WT H1 hESC in embryoid bodies in the presence of GANT-61, real time PCR; type: cell-based, human
Procedure: WT H1 hESC single cells were plated onto non-attachment plates and maintained in ESC media without FGF-β in the presence of FBS. Experimental group was cultured in the presence of GANT-61 (Tocris Biosciences, Cat. No. 3191) at concentration of 5 μM, while the control group was cultured in the presence of 5 μM DMSO. Media containing GANT-61 was replaced every other day. Embryoid bodies were collected at days 10 and 20. Markers for the three embryologic lineages were analyzed by real time PCR.
as §1

[1] = test system: GLI1 and GLI2 transcription factors; conditions: cited from earlier work
GLI1 = biological target: T1, GLI1 (Homo sapiens, UniProt P08151); conditions: between zinc fingers 2 and 3 at sites E119 and E167; cited from earlier work
T1 sequence (P08151 1-1106): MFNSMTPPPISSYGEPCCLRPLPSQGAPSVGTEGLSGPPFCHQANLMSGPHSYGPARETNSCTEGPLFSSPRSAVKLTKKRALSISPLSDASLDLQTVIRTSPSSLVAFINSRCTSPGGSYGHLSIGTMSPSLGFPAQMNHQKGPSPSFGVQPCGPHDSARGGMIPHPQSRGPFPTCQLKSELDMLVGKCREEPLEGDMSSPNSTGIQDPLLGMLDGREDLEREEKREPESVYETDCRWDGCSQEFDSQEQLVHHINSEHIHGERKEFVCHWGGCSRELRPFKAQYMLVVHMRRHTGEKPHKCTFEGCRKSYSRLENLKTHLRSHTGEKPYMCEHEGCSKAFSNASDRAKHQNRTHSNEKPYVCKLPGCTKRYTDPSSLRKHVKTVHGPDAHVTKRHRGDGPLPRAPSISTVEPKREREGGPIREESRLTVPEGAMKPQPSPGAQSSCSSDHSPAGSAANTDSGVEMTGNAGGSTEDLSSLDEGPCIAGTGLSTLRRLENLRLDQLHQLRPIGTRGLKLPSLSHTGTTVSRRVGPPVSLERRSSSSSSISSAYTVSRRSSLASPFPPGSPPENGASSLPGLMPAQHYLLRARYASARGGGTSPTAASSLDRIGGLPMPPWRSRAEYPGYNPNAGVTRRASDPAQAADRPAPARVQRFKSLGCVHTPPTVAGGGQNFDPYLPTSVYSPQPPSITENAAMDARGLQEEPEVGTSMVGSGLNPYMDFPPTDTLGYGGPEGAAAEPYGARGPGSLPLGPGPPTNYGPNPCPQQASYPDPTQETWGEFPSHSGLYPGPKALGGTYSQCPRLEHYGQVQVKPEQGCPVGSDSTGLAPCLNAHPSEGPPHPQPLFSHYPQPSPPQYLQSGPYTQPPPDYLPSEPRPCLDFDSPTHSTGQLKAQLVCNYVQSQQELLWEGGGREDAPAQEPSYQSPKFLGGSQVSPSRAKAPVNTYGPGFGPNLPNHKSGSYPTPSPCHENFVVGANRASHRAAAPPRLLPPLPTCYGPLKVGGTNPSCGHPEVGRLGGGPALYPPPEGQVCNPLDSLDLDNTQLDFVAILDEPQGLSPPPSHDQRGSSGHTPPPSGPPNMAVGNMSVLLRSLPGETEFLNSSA

DNA = conditions: cited from earlier work
[2] = test system: human colon carcinoma cell lines; conditions: panel of 7 human colon carcinoma cell lines; cited from earlier work
[3] = test system: lung adenocarcinoma cell lines; conditions: cited from earlier work
cancer cells = conditions: cited from earlier work
[4] = 5 μM GANT-61, day 10 embryoid bodies
[5] = 5 μM GANT-61, during the differentiation process

For `c1cc(-c2sc(-c3ccncc3)c(-c3ccncc3)c2-c2ccncc2)ccn1` [GANT-58], the “oxytocin induced HIF-1alpha expression” value (HUVEC cells; HUVEC cells) is given as “abrogate” and the “angiogenic capacity of HUVEC cells” value (HUVEC cells) is given as “reduction”.
For `CN(C)c1ccccc1CN1CCCN(Cc2ccccc2N(C)C)C1c1ccncc1` [GANT-61], the Bcl-2 expression (Rh18 cells) was “significant down-regulation”, the Bcl-2 expression (Rh41 cells) was “significant down-regulation” and the GLI1 expression (hESCs) was “no significant differences”. The PTCH1 expression (hESCs) was “no significant differences”, the SMO expression (hESCs) was “no significant differences” and the pluripotency marker expression (hESCs) was “no significant differences”. For the same molecule, the “mesodermal commitment of H1 hESCs in embryoid bodies” value (H1 hESCs) was “inhibited”, the GLI1 expression (H1 hESCs; 5 μM GANT-61, day 10) was “down-regulated” and the GLI2 expression (H1 hESCs; 5 μM GANT-61, day 10) was “down-regulated”. For the same molecule, the PTCH1 expression (H1 hESCs; 5 μM GANT-61, day 10) was “down-regulated”, the Plakoglobin expression (H1 hESCs; 5 μM GANT-61, day 10) was “down-regulated” and the “expression of pluripotency genes” value (H1 hESCs; 5 μM GANT-61, day 10) was “down-regulated”. The “ectodermal gene expression / differentiation” value (H1 hESCs; [4]) was “decreased; also recorded: inhibited”, the “endodermal gene expression / differentiation” value (H1 hESCs; [4]) was “significantly increased; also recorded: promoted” and the “mesodermal gene expression / differentiation” value (H1 hESCs; [4]) was “significantly increased; also recorded: promoted”. The GLI1 expression (H1 hESCs; 5 μM GANT-61, day 20) was “continued to down-regulate”, the GLI2 expression (H1 hESCs; 5 μM GANT-61, day 20) was “continued to down-regulate” and the PTCH1 expression (H1 hESCs; 5 μM GANT-61, day 20) was “continued to down-regulate”. The endodermal marker expression (H1 hESCs; 5 μM GANT-61, day 20) was “significantly decreased; also recorded: significantly reduced”, the “expression of pluripotency genes” value (H1 hESCs; 5 μM GANT-61, day 20) was “continued to down-regulate” and the mesodermal marker expression (H1 hESCs; 5 μM GANT-61, day 20) was “significantly decreased; also recorded: significantly reduced”. For the same molecule, the GLI1 expression (H1 hESCs; [5]) was “significantly down-regulated”, the PTCH1 expression (H1 hESCs; [5]) was “significantly down-regulated” and the “binding of GLI1 and GLI2 transcription factors to DNA” value [1] was “inhibiting the binding”. For the same molecule, the “binding to GLI1” value (GLI1) was “binds”, the “binding to DNA” value (DNA) was “does not bind” and the cell death [2] was “extensive cell death”. The cancer initiating phenotype [3] was “effective inhibiting”, the apoptosis (cancer cells) was “increases” and the proliferation (cancer cells) was “reduces”. For the same molecule, the stem cell markers (cancer cells) was “reduces”.
